Values of other authors as cited in patent US20250009670A1, “Stable Solid Oral Formulation Of Tafamidis Or Pharmaceutically Acceptable Salt Thereof” (Navinta, LLC, priority 2023, published 2025).

aqueous solubility: low aqueous solubility
SMILES: O=C(O)c1ccc2nc(-c3cc(Cl)cc(Cl)c3)oc2c1 [Tafamidis, 2-(3,5-dichlorophenyl)-1,3-benzoxazole-6-carboxylic acid]
